Laboratory results as given in US20160101188A1, “NOVEL NANOCARRIER DELIVERED CANCER CHEMOTHERAPEUTIC AGENTS” (UNIVERSITY OF CINCINNATI, priority 2013, published 2016).

Assays:
[1] = system: MCF7 (breast cancer) cells; assay: MTT cytotoxicity assay in MCF7 breast cancer cells; assay type: cell-based; details: 65 hours incubation, read-out: IC50, viability of MCF7 cells from the MTT assay
Method: The cyctoxicity of compounds was determined in MCF 7 (breast cancer) cells.
MCF7 cells were grown in RPMI 1640 media with 10 nM estrogen and 1 mM insulin. Cells were tyripsinized and resuspended at a density of 2.2×10^4 cells per mL. 500 μL of this suspension was added to each well in a 24 well plate. The plates were incubated at 37° C. and 5% CO2 atmosphere overnight. The media was changed, and plates were dosed in triplicate with compound dissolved in DMSO. Cells were dosed not to exceed 0.5% DMSO in solution. Cells were dosed to a final concentration of 100, 50, 25, 12.5, and 6.25 μM of compound. 5-Flurouracil was used as a positive control and dosed in the same manner. Plates were incubated for 65 hours prior to the addition of MTT solution. 500 μL of a 193 μg/mL MTT and media solution was added to each well. Plates were incubated for 3 hours. The MTT solution was removed and 500 μL of DMSO was added to each well. Cells were imaged using GS 800 Bio Rad scanner and Quality One Software. IC50 curves were determined by plotting viability verses compound concentration. Kaleidagraph software was used to calculate the R value for each logarithmic curve fitting.

Breast MSF7 = assay: NCI in vitro cell line screen (SRB), single dose; assay type: cell-based, human; details: Breast MSF7, single dose of 10 μM
Method: (§1) Four of the preliminary lead compounds: three nucleosides (JT-1-10, VAL-1-15/42, VAL-1-16) and one nucleobase (KB-1-17)—were submitted to the National Cancer Institute for the in vitro cell line screening project (IVCLSP). The screening consisted in the evaluation of this compound against the 60 cell lines at a single dose of 10 μM.
(§2) The human tumor cell lines of the cancer screening panel are grown in RPMI 1640 medium containing 5% fetal bovine serum and 2 mM L-glutamine. For a typical screening experiment, cells are inoculated into 96 well microtiter plates in 100 μL at plating densities ranging from 5,000 to 40,000 cells/well depending on the doubling time of individual cell lines. After cell inoculation, the microtiter plates are incubated at 37° C., 5% CO2, 95% air and 100% relative humidity for 24 h prior to addition of experimental drugs.
(§3) After 24 h, two plates of each cell line are fixed in situ with TCA, to represent a measurement of the cell population for each cell line at the time of drug addition (Tz). Experimental drugs are solubilized in dimethyl sulfoxide at 400-fold the desired final maximum test concentration and stored frozen prior to use. At the time of drug addition, an aliquot of frozen concentrate is thawed and diluted to twice the desired final maximum test concentration with complete medium containing 50 μg/ml gentamicin. Additional four, 10-fold or ½ log serial dilutions are made to provide a total of five drug concentrations plus control. Aliquots of 100 μl of these different drug dilutions are added to the appropriate microtiter wells already containing 100 μl of medium, resulting in the required final drug concentrations.
(§4) Following drug addition, the plates are incubated for an additional 48 h at 37° C., 5% CO2, 95% air, and 100% relative humidity. For adherent cells, the assay is terminated by the addition of cold TCA. Cells are fixed in situ by the gentle addition of 50 μl of cold 50% (w/v) TCA (final concentration, 10% TCA) and incubated for 60 minutes at 4° C. The supernatant is discarded, and the plates are washed five times with tap water and air dried. Sulforhodamine B (SRB) solution (100 μl) at 0.4% (w/v) in 1% acetic acid is added to each well, and plates are incubated for 10 minutes at room temperature. After staining, unbound dye is removed by washing five times with 1% acetic acid and the plates are air dried. Bound stain is subsequently solubilized with 10 mM trizma base, and the absorbance is read on an automated plate reader at a wavelength of 515 nm. For suspension cells, the methodology is the same except that the assay is terminated by fixing settled cells at the bottom of the wells by gently adding 50 μl of 80% TCA (final concentration, 16% TCA). Using the seven absorbance measurements [time zero, (Tz), control growth, (C), and test growth in the presence of drug at the five concentration levels (Ti)], the percentage growth is calculated at each of the drug concentrations levels. Percentage growth inhibition is calculated as:
(§5) [(Ti−Tz)/(C−Tz)]×100 for concentrations for which Ti>/=Tz
(§6) [(Ti−Tz)/Tz]×100 for concentrations for which Ti<Tz.
(§7) Three dose response parameters are calculated for each experimental agent. Growth inhibition of 50% (GI50) is calculated from [(Ti−Tz)/(C−Tz)]×100=50, which is the drug concentration resulting in a 50% reduction in the net protein increase (as measured by SRB staining) in control cells during the drug incubation. The drug concentration resulting in total growth inhibition (TGI) is calculated from Ti=Tz. The LC50 (concentration of drug resulting in a 50% reduction in the measured protein at the end of the drug treatment as compared to that at the beginning) indicating a net loss of cells following treatment is calculated from [(Ti−Tz)/Tz]×100=−50. […]

CNS SNB-75 = assay: NCI in vitro cell line screen (SRB), single dose; assay type: cell-based, human; details: CNS SNB-75, single dose of 10 μM
Method: as §1, §2, §3, §4, §5, §6, §7

Leukemia RPMI-8226 = assay: NCI in vitro cell line screen (SRB), single dose; assay type: cell-based, human; details: Leukemia RPMI-8226, single dose of 10 μM
Method: as §1, §2, §3, §4, §5, §6, §7

[2] = system: Non-Small Cell Lung HOP-92; assay: NCI in vitro cell line screen (SRB), single dose; assay type: cell-based, human; details: Non-Small Cell Lung HOP-92, single dose of 10 μM
Method: as §1, §2, §3, §4, §5, §6, §7

[3] = system: Non-Small Cell Lung NCI-H522; assay: NCI in vitro cell line screen (SRB), single dose; assay type: cell-based, human; details: Non-Small Cell Lung NCI-H522, single dose of 10 μM
Method: as §1, §2, §3, §4, §5, §6, §7

Renal TK-10 = assay: NCI in vitro cell line screen (SRB), single dose; assay type: cell-based, human; details: Renal TK-10, single dose of 10 μM
Method: as §1, §2, §3, §4, §5, §6, §7

Renal UO-31 = assay: NCI in vitro cell line screen (SRB), single dose; assay type: cell-based, human; details: Renal UO-31, single dose of 10 μM
Method: as §1, §2, §3, §4, §5, §6, §7

CNS SF-268 = assay: NCI in vitro cell line screen (SRB), single dose; assay type: cell-based, human; details: CNS SF-268, single dose of 10 μM
Method: as §1, §2, §3, §4, §5, §6, §7

Prostate PC-3 = assay: NCI in vitro cell line screen (SRB), single dose; assay type: cell-based, human; details: Prostate PC-3, single dose of 10 μM
Method: as §1, §2, §3, §4, §5, §6, §7

Renal CAKI-1 = assay: NCI in vitro cell line screen (SRB), single dose; assay type: cell-based, human; details: Renal CAKI-1, single dose of 10 μM
Method: as §1, §2, §3, §4, §5, §6, §7

Melanoma UACC-62 = assay: NCI in vitro cell line screen (SRB), single dose; assay type: cell-based, human; details: Melanoma UACC-62, single dose of 10 μM
Method: as §1, §2, §3, §4, §5, §6, §7

Renal A498 = assay: NCI in vitro cell line screen (SRB), single dose; assay type: cell-based, human; details: Renal A498, single dose of 10 μM
Method: as §1, §2, §3, §4, §5, §6, §7

γ-H2AX = assay: Western blot of drug-treated MCF7 cells detecting double-strand break marker γ-H2AX; assay type: cell-based; details: 4.5 μM, 16 hours, nuclear extract, two trials (FIG. 3)
Method: Vehicle controls were simultaneously prepared by treatment with DMSO.
Nuclear proteins from both the drug-treated and control samples were conducted using NE-PER Nuclear and Cytoplasmic Extraction Kit (Thermo Scientific) using the manufacturer's protocol. In detail, cells were harvested by trypsin-EDTA and centrifuged at 500×g for 5 minutes. The cells were washed to remove traces of trypsin by suspending in 1×PBS, followed by centrifugation at 500×g for 2-3 minutes. The supernatant was removed leaving the cell pellet as dry as possible. A 200 μL volume of ice-cold cytoplasmic extraction reagent I (CER-I), treated Halt™ Protease & Phosphatase Inhibitor Cocktail (Thermo Scientific), was added to the pellet. The cell pellet was suspended by vortexing vigorously for 15 seconds and then incubated on ice for 10 minutes. The mixture is then treated with 11 μL of ice-cold cytoplasmic extraction reagent II (CER-II) and mixed by vortexing on the highest setting for 5 seconds followed by incubation on ice of one minute to allow complete release of cytoplasmic contents. […]
Protein concentration in each sample and control was determined by Bradford Assay using Coomassie Plus™ (Bradford) Assay Kit (Thermo Scientific), applying the manufacturer's instruction. […] The absorbance is then measured at 595 nm using a Synergy 4 plate reader (Biotek). […]

| SMILES | IC50 [1] [µM] | Growth Percent (CNS SNB-75) [%] | Growth Percent [2] [%] | Growth Percent (Prostate PC-3) [%] | also measured |
| --- | --- | --- | --- | --- | --- |
| CC(C)(C)C(OCc1cn([C@H]2C[C@H](O)[C@@H](CO)O2)c(=O)[nH]c1=O)c1ccccc1 (stereo partly shown) [JT-1-10, 5-[1-(phenyl)-2,2-(dimethyl)-1-propoxymethyl]-2′-deoxyuridine] | 188 | 65 | 89 | – | Growth Percent (Breast MSF7): 87%; Growth Percent (Leukemia RPMI-8226): 90%; Growth Percent [3]: 91%; Growth Percent (Renal TK-10): 84%; Growth Percent (Renal UO-31): 88% |
| CC(C)(C)C(OCc1c[nH]c(=O)[nH]c1=O)c1ccccc1[N+](=O)[O-] (stereo not shown) [KB-1-17, 5-[1-(2-nitrophenyl)-2,2-(dimethyl)propoxymethyl]uracil] | 81 | – | 68 | 93 | Growth Percent (CNS SF-268): 91% |
| CC(C)(C)C(OCc1cn([C@H]2C[C@H](O)[C@@H](CO)O2)c(=O)[nH]c1=O)c1ccccc1[N+](=O)[O-] (stereo partly shown) [VAL-1-15/27/42, 5-[1-(2-nitrophenyl)-2,2-(dimethyl)propoxymethyl]-2′-deoxyuridine] | 42 | 84 | 73 | 91 | Growth Percent (Renal CAKI-1): 88% |
| CC(C)(C)CC(OCc1cn([C@H]2C[C@H](O)[C@@H](CO)O2)c(=O)[nH]c1=O)c1ccccc1 (stereo partly shown) [VAL-1-16, 5-[1-(phenyl)-3,3-(dimethyl)-1-butoxymethyl]-2′-deoxyuridine] | – | 92 | – | – | Growth Percent (Melanoma UACC-62): 90%; Growth Percent (Renal A498): 92% |
| CC(C)(C)C(OCc1cn([C@H]2C[C@H](O)[C@@H](CO)O2)c(=O)[nH]c1=O)c1ccc(C#Cc2ccccc2)cc1[N+](=O)[O-] (stereo partly shown) [VAL-1-36/38, 5-[1-(4-{2-phenylacetylenyl}-2-nitrophenyl)-2,2-(dimethyl)-1-propoxymethyl]-2′-deoxyuridine] | 9 ± 1 | – | – | – | double-strand break marker γ-H2AX (DNA damage response) (γ-H2AX): causes a DNA damage response |
